Measurements taken from US20100298141A1, “SUBSTITUTED PYRIDINE N-OXIDE HERBICIDES” (E. I. DU PONT DE NEMOURS AND COMPANY, priority 2007, published 2010).

How the values were obtained:
giant foxtail = assay: Test A pre-/postemergence greenhouse test; assay type: in vivo, Setaria faberi; settings: for Plant response rating, Foxtail, Giant: 0 to 100 scale where 0 is no effect and 100 is complete control; for Foxtail, Giant plant response rating: 0 to 100 scale
Summary of the method: (§1)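 Untreated controls served as the reference for visual injury ratings taken about ten days after spraying. The non-phytotoxic solvent/surfactant formulation was applied preemergence to seeded loam and sand and postemergence to plants two to ten cm high.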

yellow nutsedge = assay: Test C pre-/postemergence test; assay type: in vivo, Cyperus esculentus; settings: for Plant response rating, Nutsedge, Yellow: 31 g ai/ha, scale 0 to 100 (0 no effect, 100 complete control)
Summary of the method: (§2)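 Test chemicals were formulated with surfactant in a non-phytotoxic solvent and sprayed both on freshly planted seeds (preemergence) and on 1- to 4-leaf plants of 2–18 cm (postemergence). Flooded-paddy pots received compound directly into 3 cm of standing water, maintained for the test.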

wheat [1] = assay: Test C pre-/postemergence test; assay type: in vivo, Triticum aestivum; settings: for Plant response rating, Wheat: 31 g ai/ha, scale 0 to 100 (0 no effect, 100 complete control)
Summary of the method: as §2

soybean = assay: Test C pre-/postemergence test; assay type: in vivo, Glycine max; settings: for Plant response rating, Soybean: 31 g ai/ha, scale 0 to 100 (0 no effect, 100 complete control)
Summary of the method: as §2

morningglory [2] = assay: Test A pre-/postemergence greenhouse test; assay type: in vivo, Ipomoea spp.; settings: for Plant response rating, Morningglory: 0 to 100 scale where 0 is no effect and 100 is complete control; for Morningglory plant response rating: 0 to 100 scale
Summary of the method: as §1

barnyardgrass = assay: Test C flooded paddy test; assay type: in vivo, Echinochloa crus-galli; settings: Flood
Summary of the method: (§3)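 Compound was added to standing water 3 cm above soil, flood maintained, and plants held in a greenhouse before visual scoring against controls at 13 to 15 days.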

pigweed = assay: Test C pre-/postemergence test; assay type: in vivo, Amaranthus retroflexus; settings: for Plant response rating, Pigweed: 31 g ai/ha, scale 0 to 100 (0 no effect, 100 complete control)
Summary of the method: as §2

morningglory [3] = assay: Test C pre-/postemergence test; assay type: in vivo, Ipomoea coccinea
Summary of the method: as §2

bermudagrass = assay: Test C pre-/postemergence test; assay type: in vivo, Cynodon dactylon; settings: for Plant response rating, Bermudagrass: 31 g ai/ha
Summary of the method: as §2

umbrella sedge = assay: Test C flooded paddy test; assay type: in vivo, Cyperus difformis; settings: Flood
Summary of the method: as §3

Goosegrass = assay: Test C pre-/postemergence test; assay type: in vivo, Eleusin indica; settings: for Plant response rating, Goosegrass: 31 g ai/ha, scale 0 to 100 (0 no effect, 100 complete control)
Summary of the method: as §2

wheat [4] = assay: Test A pre-/postemergence greenhouse test; assay type: in vivo, Triticum aestivum; settings: for Plant response rating, Wheat: 0 to 100 scale where 0 is no effect and 100 is complete control; for Wheat plant response rating: 0 to 100 scale
Summary of the method: as §1

[5] = test system: common (oilseed) sunflower; assay: Test C pre-/postemergence test; assay type: in vivo, Helianthus annuus
Summary of the method: as §2

corn = assay: Test A pre-/postemergence greenhouse test; assay type: in vivo, Zea mays; settings: for Plant response rating, Corn: 0 to 100 scale where 0 is no effect and 100 is complete control; for Corn plant response rating: 0 to 100 scale
Summary of the method: as §1

Italian ryegrass = assay: Test C pre-/postemergence test; assay type: in vivo, Lolium multiflorum; settings: for Plant response rating, Ryegrass, Italian: 31 g ai/ha, scale 0 to 100 (0 no effect, 100 complete control)
Summary of the method: as §2

crabgrass = assay: Test A pre-/postemergence greenhouse test; assay type: in vivo, Digitaria sanguinalis; settings: for Plant response rating, Crabgrass, Large: 0 to 100 scale where 0 is no effect and 100 is complete control; for Crabgrass, Large plant response rating: 0 to 100 scale
Summary of the method: as §1

catchweed bedstraw = assay: Test C pre-/postemergence test; assay type: in vivo, Galium aparine; settings: for Plant response rating, Galium: 31 g ai/ha, scale 0 to 100 (0 no effect, 100 complete control)
Summary of the method: as §2

[6] = Postemergence, 500 g ai/ha, 0 is no effect, 100 is complete control
[7] = Preemergence, 125 g ai/ha, 0 no effect, 100 complete control
[8] = 62 g ai/ha, Preemergence, scale 0 to 100
[9] = 125 g ai/ha, preemergence, scale 0 (no effect) to 100 (complete control)
[10] = preemergence, 250 g ai/ha, scale 0 (no effect) to 100 (complete control)
[11] = 62 g ai/ha, scale 0 to 100 (0 no effect, 100 complete control)
[12] = 250 g ai/ha, scale 0 to 100, 0 no effect, 100 complete control, 13 to 15 days
[13] = Preemergence, 31 g ai/ha, scale 0 to 100 (0 no effect, 100 complete control)
[14] = 62 g ai/ha, Preemergence, scale 0 to 100 (0 no effect, 100 complete control)
[15] = Preemergence, scale 0 to 100 (0 no effect, 100 complete control)
[16] = 31 g ai/ha, scale 0 to 100 (0 no effect, 100 complete control)
[17] = 125 g ai/ha, scale 0 to 100, 0 no effect, 100 complete control, 13 to 15 days

## CC(Oc1c(C[S+]([O-])c2cccc[n+]2[O-])c(C(F)(F)F)nn1C)C(F)(F)F (stereo not drawn) [Compound 77]
Giant foxtail; Postemergence, 125 g ai/ha
  Plant response rating, Foxtail, Giant: 80
Giant foxtail; [6]
  Foxtail, Giant plant response rating: 90
Giant foxtail; [7]
  Foxtail, Giant plant response rating: 90
Giant foxtail; Preemergence, 500 g ai/ha
  Plant response rating, Foxtail, Giant: 100
Yellow nutsedge; [8]
  Nutsedge, Yellow plant response rating: 100
Yellow nutsedge; [9]
  Nutsedge, Yellow plant response rating: 100
Yellow nutsedge; Preemergence
  Plant response rating, Nutsedge, Yellow: 50
Yellow nutsedge; [10]
  Nutsedge, Yellow plant response rating: 100
Wheat [1]; [8]
  Wheat plant response rating: 40
Wheat [1]; [9]
  Wheat plant response rating: 80
Wheat [1]; Preemergence
  Plant response rating, Wheat: 20
Wheat [1]; [10]
  Wheat plant response rating: 95
soybean; [8]
  Soybean plant response rating: 45
soybean; [9]
  Soybean plant response rating: 70
soybean; Preemergence
  Plant response rating, Soybean: 40
soybean; [10]
  Soybean plant response rating: 100
Morningglory [2]; Postemergence, 125 g ai/ha
  Plant response rating, Morningglory: 70
Morningglory [2]; [6]
  Morningglory plant response rating: 90
Morningglory [2]; [7]
  Morningglory plant response rating: 70
Morningglory [2]; Preemergence, 500 g ai/ha
  Plant response rating, Morningglory: 100
barnyardgrass; [11]
  Plant response rating, Barnyardgrass: 0
barnyardgrass; [12]
  Plant response rating, Barnyardgrass: 75
pigweed; [8]
  Pigweed plant response rating: 100
pigweed; [9]
  Pigweed plant response rating: 100
pigweed; Preemergence
  Plant response rating, Pigweed: 100
pigweed; [10]
  Pigweed plant response rating: 100
Morningglory [3]; [8]
  Morningglory plant response rating: 65
Morningglory [3]; [9]
  Morningglory plant response rating: 100
Morningglory [3]; [13]
  Plant response rating, Morningglory: 60
Morningglory [3]; [10]
  Morningglory plant response rating: 100
bermudagrass; [14]
  Bermudagrass plant response rating: 100
bermudagrass; [9]
  Bermudagrass plant response rating: 100
bermudagrass; [15]
  Plant response rating, Bermudagrass: 100
bermudagrass; [10]
  Bermudagrass plant response rating: 100
Umbrella sedge; [11]
  Plant response rating, Sedge, Umbrella: 100
Umbrella sedge; [12]
  Plant response rating, Sedge, Umbrella: 100
Goosegrass; [8]
  Goosegrass plant response rating: 100
Goosegrass; [9]
  Goosegrass plant response rating: 100
Goosegrass; Preemergence
  Plant response rating, Goosegrass: 95
Goosegrass; [10]
  Goosegrass plant response rating: 100
Wheat [4]; Postemergence, 125 g ai/ha
  Plant response rating, Wheat: 50
Wheat [4]; [6]
  Wheat plant response rating: 70
Wheat [4]; [7]
  Wheat plant response rating: 50
Wheat [4]; Preemergence, 500 g ai/ha
  Plant response rating, Wheat: 100
[5]; [8]
  Sunflower plant response rating: 0
[5]; [9]
  Sunflower plant response rating: 80
[5]; [13]
  Plant response rating, Sunflower: 0
[5]; [10]
  Sunflower plant response rating: 98
corn; Postemergence, 125 g ai/ha
  Plant response rating, Corn: 50
corn; [6]
  Corn plant response rating: 60
corn; [7]
  Corn plant response rating: 50
corn; Preemergence, 500 g ai/ha
  Plant response rating, Corn: 80
Italian ryegrass; [8]
  Ryegrass, Italian plant response rating: 98
Italian ryegrass; [9]
  Ryegrass, Italian plant response rating: 100
Italian ryegrass; Preemergence
  Plant response rating, Ryegrass, Italian: 80
Italian ryegrass; [10]
  Ryegrass, Italian plant response rating: 100
crabgrass; Postemergence, 125 g ai/ha
  Plant response rating, Crabgrass, Large: 60
crabgrass; [6]
  Crabgrass, Large plant response rating: 90
crabgrass; [7]
  Crabgrass, Large plant response rating: 80
crabgrass; Preemergence, 500 g ai/ha
  Plant response rating, Crabgrass, Large: 100
Catchweed bedstraw; [8]
  Galium plant response rating: 100
Catchweed bedstraw; [9]
  Galium plant response rating: 100
Catchweed bedstraw; Preemergence
  Plant response rating, Galium: 100
Catchweed bedstraw; [10]
  Galium plant response rating: 100

## Cn1nc(C(F)(F)F)c(C[S+]([O-])c2ccc(Cl)c[n+]2[O-])c1OCC(F)F (stereo not drawn) [Compound 85]
Giant foxtail; Postemergence, 125 g ai/ha
  Plant response rating, Foxtail, Giant: 90
Giant foxtail; [6]
  Foxtail, Giant plant response rating: 90
Giant foxtail; [7]
  Foxtail, Giant plant response rating: 100
Giant foxtail; Preemergence, 500 g ai/ha
  Plant response rating, Foxtail, Giant: 100
Yellow nutsedge; [8]
  Nutsedge, Yellow plant response rating: 40
Yellow nutsedge; [9]
  Nutsedge, Yellow plant response rating: 40
Yellow nutsedge; Preemergence
  Plant response rating, Nutsedge, Yellow: 40
Yellow nutsedge; [10]
  Nutsedge, Yellow plant response rating: 95
Wheat [1]; [8]
  Wheat plant response rating: 50
Wheat [1]; [9]
  Wheat plant response rating: 70
Wheat [1]; Preemergence
  Plant response rating, Wheat: 50
Wheat [1]; [10]
  Wheat plant response rating: 100
soybean; [8]
  Soybean plant response rating: 100
soybean; Preemergence
  Plant response rating, Soybean: 100
soybean; [10]
  Soybean plant response rating: 100
Morningglory [2]; Postemergence, 125 g ai/ha
  Plant response rating, Morningglory: 70
Morningglory [2]; [6]
  Morningglory plant response rating: 90
Morningglory [2]; [7]
  Morningglory plant response rating: 60
Morningglory [2]; Preemergence, 500 g ai/ha
  Plant response rating, Morningglory: 100
barnyardgrass; [16]
  Plant response rating, Barnyardgrass: 0
barnyardgrass; [11]
  Plant response rating, Barnyardgrass: 0
barnyardgrass; [17]
  Plant response rating, Barnyardgrass: 25
barnyardgrass; [12]
  Plant response rating, Barnyardgrass: 70
pigweed; [8]
  Pigweed plant response rating: 100
pigweed; [9]
  Pigweed plant response rating: 100
pigweed; Preemergence
  Plant response rating, Pigweed: 100
pigweed; [10]
  Pigweed plant response rating: 100
Morningglory [3]; [8]
  Morningglory plant response rating: 90
Morningglory [3]; [9]
  Morningglory plant response rating: 90
Morningglory [3]; [10]
  Morningglory plant response rating: 100
bermudagrass; [14]
  Bermudagrass plant response rating: 100
bermudagrass; [9]
  Bermudagrass plant response rating: 100
bermudagrass; [15]
  Plant response rating, Bermudagrass: 90
bermudagrass; [10]
  Bermudagrass plant response rating: 100
Umbrella sedge; [16]
  Plant response rating, Sedge, Umbrella: 0
Umbrella sedge; [11]
  Plant response rating, Sedge, Umbrella: 45
Umbrella sedge; [17]
  Plant response rating, Sedge, Umbrella: 60
Umbrella sedge; [12]
  Plant response rating, Sedge, Umbrella: 95
Goosegrass; [8]
  Goosegrass plant response rating: 100
Goosegrass; [9]
  Goosegrass plant response rating: 100
Goosegrass; Preemergence
  Plant response rating, Goosegrass: 100
Goosegrass; [10]
  Goosegrass plant response rating: 100
Wheat [4]; Postemergence, 125 g ai/ha
  Plant response rating, Wheat: 60
Wheat [4]; [6]
  Wheat plant response rating: 70
Wheat [4]; [7]
  Wheat plant response rating: 70
Wheat [4]; Preemergence, 500 g ai/ha, 0 no effect, 100 complete control
  Wheat plant response rating: 90
[5]; [8]
  Sunflower plant response rating: 30
[5]; [9]
  Sunflower plant response rating: 50
[5]; [10]
  Sunflower plant response rating: 80
corn; Postemergence, 125 g ai/ha
  Plant response rating, Corn: 0
corn; [6]
  Corn plant response rating: 60
corn; [7]
  Corn plant response rating: 0
corn; Preemergence, 500 g ai/ha
  Plant response rating, Corn: 80
Italian ryegrass; [8]
  Ryegrass, Italian plant response rating: 90
Italian ryegrass; [9]
  Ryegrass, Italian plant response rating: 90
Italian ryegrass; Preemergence
  Plant response rating, Ryegrass, Italian: 80
Italian ryegrass; [10]
  Ryegrass, Italian plant response rating: 100
crabgrass; Postemergence, 125 g ai/ha
  Plant response rating, Crabgrass, Large: 70
crabgrass; [6]
  Crabgrass, Large plant response rating: 90
crabgrass; [7]
  Crabgrass, Large plant response rating: 80
crabgrass; Preemergence, 500 g ai/ha
  Plant response rating, Crabgrass, Large: 100
Catchweed bedstraw; [8]
  Galium plant response rating: 100
Catchweed bedstraw; [9]
  Galium plant response rating: 100
Catchweed bedstraw; Preemergence
  Plant response rating, Galium: 98
Catchweed bedstraw; [10]
  Galium plant response rating: 100
